{"source": "patent US20060057071A1", "about": "“Paramagnetic complexes with pendant crown compounds showing improved targeting-specificity as MRI contrast agents” (priority 2004, published 2006)", "key": {"[1]": {"assay": "1H NMRD profiles (water proton relaxivity)", "format": "physicochemical", "conditions": "25° C., pH 6.9, fits of NMRD profile and 17O NMR", "description": "(§1) Measuring the relaxation rates of an abundant nuclear species as a function of the magnetic field over a wide range is called relaxometry. A relaxometry profile is a plot of the nuclear magnetic relaxation rate, usually 1/T1, as a function of the Larmor frequency or the magnetic field. This profile is also called a Nuclear Magnetic Resonance Dispersion (NMRD) profile. Compared with the NMRD profile, the prominent advantage of the ^17O NMR technique is that it allows the accurate determination of the water exchange rate 1/TM. This is a consequence of the oxygen nucleus being closer to the paramagnetic centre when bound in the inner-sphere, wherein the outer-sphere contributions to the relaxation rates are negligibly small. With the help of NMRD profiles, ^17O NMR measurements, and the Soloman-Bloemnergen-Morgan theory, several important parameters, such as TM, TR, TV, Δ^2 and rH, can be measured.\nWater proton nuclear magnetic resonance dispersion NMRD profile is used to record the longitudinal water proton relaxation rates as a function of magnetic fields. The method is, in principle, sensitive to all of the parameters that influence relaxivity. The ^1H NMRD profiles were measured over a continuum of magnetic field strength from 0.00024 to 0.24 T (corresponding to 0.01-10 MHz proton Larmor frequency, 1 T≈41.7 MHz) on a Spinmaster FFC (Stelar, Mede (PV)), which is a fast field-cycling NMR relaxometer installed at the LIMA Laboratory (Bioindustry Park, Ivrea (TO), Italy). The relaxometer worked under complete control with an absolute uncertainty in 1/T1 of ±2%. The NMRD profiles were measured using 1-2 mM solutions of the complexes."}, "[2]": {"assay": "1H NMRD profiles (water proton relaxivity)", "format": "physicochemical", "conditions": "20 MHz, 25° C., pH 6.9"}, "liver parenchyma": {"system": "liver parenchyma", "assay": "In vivo MRI, hepatic intensity enhancement", "set-up": "species or system rat", "conditions": "for maximal hepatic IE: rat", "procedure": "(§2) To study the MRI contrast and biodistribution behavior of gadolinium complexes […] pendant crown ethers, experiments were performed using male Sprague-Dawley (SD) rats that weighted 150-180 g, and were housed at the Wuhan Institute of Physical and Mathematics of the Chinese Academy of Sciences (Wuhan, Hubei Province, China). All procedures conformed to the institutional guidelines for animal welfare. The rat was injected via the femoral vein with 1 mL saline solution of GdL1 in concentrations of 0.1, 0.033, and 0.02 mM/kg, which are the standard dosage, one third and one fifth of the standard dosage used in clinic currently. MR imaging was performed on a 4.7 T Bruker BIO-SPEC-47/30 MRI scanner with a custom spiral surface coil. The animal was scanned in the prone position in the MRI experiment. […] The total duration of the dynamic scanning lasted up to 400 min after the administration, with an image every 4 min. A water tube was placed in the field of view as a phantom reference. The intensity enhancement (IE) of the region of interest (RI) at time point t is expressed by IE=100% (RI(t)-RI(0))/RI(0) where RI(t) corresponds to the normalized signal intensity as measured at time point, t and RI(0) is the normalized signal intensity precontrast."}, "[3]": {"assay": "Variable-temperature 17O NMR transverse relaxation rate", "format": "physicochemical", "description": "as §1\nThe variable-temperature ^17O NMR measurements were recorded on a JEOL EX-90 (2.1 T) spectrometer that was equipped with a 5 mm probe, by using a D2O external lock. The experimental settings were: spectral width of 10000 Hz, pulse width of 7 μs, acquisition time of 10 ms, 1000 scans, and no sample spinning. Solutions containing 2.6% of ^17O isotope were used. The observed transverse relaxation rates (R2obs^O) were calculated from the signal width at half height."}, "kidney cortex": {"system": "kidney cortex", "assay": "In vivo MRI, renal intensity enhancement", "set-up": "species or system rat", "procedure": "as §2"}, "MIHA cells [4]": {"system": "MIHA cells", "assay": "AO/EB staining, laser scanning confocal microscopy", "format": "cell-based", "conditions": "10 μM, 1 h, 2 h, 8 h, 24 h incubation, 37° C.", "procedure": "MIHA cells in the absence (control) and presence of Gd-DOTA (10 μM), Gd-DO3A (10 μM), and GdL1 (10 μM) incubated at 37° C. and 5% CO2, 95% air in a humidified incubator for 1 h, 2 h, 8 h, and 24 h, respectively.\nBased on cell morphology and cell membrane integrity, normal, necrotic, and apoptotic cells can be distinguished using laser confocal microscopy. FIG. 22 gives the cell morphology in the absence and presence of Gd-DOTA (10 μM), Gd-DO3A (10 μM), and GdL1 (10 μM) at various time intervals after the incubation. In the absence or presence of the Gd^3+ complexes, the nuclei of the living cells were stained as bright blue spots in the nucleus."}, "MIHA cells [5]": {"system": "MIHA cells", "assay": "In vitro cytotoxicity, MTT / XTT cell proliferation assay", "format": "cell-based", "procedure": "To further investigate the potential ability of GdL1 as an NMRI contrast agent, its cytotoxicity was measured by MTT assay. The toxicity of GdL1 was determined from the dose-dependence of surviving cells after exposure to this Gd^3+ complex at different time intervals. For comparison, the cytotoxicities of Gd-DOTA and Gd-DO3A were measured under the same conditions.\nTo evaluate the toxicity of prepared Gd^3+ complexes, a calorimetric assay (XTT-based) for the non-radioactive quantification of cell proliferation was applied. In the cell proliferating process, the added tetrazolium salt XTT was cleaved to a formazan dye by metabolically active cells, and the quantification of cell growth was achieved by the variation of the absorbance at 492 nm. […] Different concentrations of drugs were adjusted by performing serial dilution. The incubation period of the cell culture ranged from 1, 2, 8, and 24 hrs. XTT dye at a concentration of 5 mg/mL (sigma, St. Louis, Mo.) was added, and the plates were incubated for 12 h in a moist chamber at 37° C. The optical density was determined by eluting the dye with dimethyl sulfoxide, and the absorbance was measured at 570 nm. At least three independent experiments were performed."}}, "note": "“And” between values parts separate entries of the source, which are not always exact repeats. Equal entries are not always repeated.", "data": [{"smiles": "O=C([O-])CN1CCN(CCN2CCOCCOCCOCCOCC2)CCN(CC(=O)[O-])CCN(CC(=O)[O-])CC1.[Gd+3]", "note": "[GdL1, Gd^3+ Complex of L1]", "values": [{"measurement": "D", "setting": "[1]", "value": "2.24E-5", "unit": "cm^2s^−1"}, {"measurement": "TR", "setting": "[1]", "value": 146, "unit": "ps"}, {"measurement": "TV", "setting": "[1]", "value": 13, "unit": "ps"}, {"measurement": "a", "setting": "[1]", "value": 4.0, "unit": "Å"}, {"measurement": "q", "setting": "[1]", "value": 2}, {"measurement": "r", "setting": "[1]", "value": 2.98, "unit": "Å"}, {"measurement": "Δ^2", "setting": "[1]", "value": "8e+19", "unit": "s⁻¹"}, {"measurement": "proton relaxivity r1 (r1p)", "setting": "[2]", "value": 9.65, "unit": "mM⁻¹ s⁻¹"}, {"measurement": "time after administration of maximal hepatic IE", "setting": "liver parenchyma; 0.02 mmol/kg", "value": 60, "unit": "min"}, {"measurement": "hepatic IE maintained after 3 h", "setting": "liver parenchyma; 0.02 mmol/kg, 3 h", "value": "over 40%"}, {"measurement": "hepatic IE a few minutes after the injection", "setting": "liver parenchyma; 0.03 mmol/kg", "value": "about 50%"}, {"measurement": "hepatic IE persisting after 320 min", "setting": "liver parenchyma; 0.03 mmol/kg, 320 min", "value": 50, "unit": "%"}, {"measurement": "time for which high hepatic IE stays on a plateau", "setting": "liver parenchyma; 0.033 mmol/kg", "value": "more than 4 h"}, {"measurement": "hepatic IE level on plateau", "setting": "liver parenchyma; 0.033 mmol/kg, more than 4 h after administration", "value": "> 60", "unit": "%"}, {"measurement": "resident lifetime in hepatic tissues", "setting": "liver parenchyma; 0.1 mmol/kg", "value": "> 4", "unit": "h"}, {"measurement": "time after administration at which obvious enhancement of the liver was monitored", "setting": "liver parenchyma; 0.1 mmol/kg", "value": 30, "unit": "min"}, {"measurement": "time after administration of maximal hepatic IE", "setting": "liver parenchyma; 0.1 mmol/kg", "value": "90 to 100", "unit": "min"}, {"measurement": "time for which strong/high hepatic IE was maintained", "setting": "liver parenchyma; 0.1 mmol/kg", "value": "more than 4 h"}, {"measurement": "maximal hepatic IE", "setting": "liver parenchyma; 0.1 mmol/kg (standard dosage)", "value": 105, "unit": "%"}, {"measurement": "time after administration of maximal hepatic IE", "setting": "liver parenchyma; 0.033 (0.03) mmol/kg", "value": "60 to 100", "unit": "min"}, {"measurement": "maximal hepatic IE", "setting": "liver parenchyma; 0.033 (0.03) mmol/kg", "value": 90, "unit": "%"}, {"measurement": "time for which strong hepatic intensity enhancement is maintained", "setting": "liver parenchyma; summary statement", "value": "more than four hours"}, {"measurement": "temperature at which R2p attains its maximum", "setting": "[3]; 2.12 T, range 273-340 K", "value": "~270", "unit": "K"}, {"measurement": "water exchange rate kex^298", "setting": "[3]; 25° C.", "value": "1.82e+07", "unit": "s⁻¹"}, {"measurement": "TM", "setting": "[3]; 25° C., pH 6.9, derived from VT 17O NMR spectroscopy", "value": 55, "unit": "ns"}, {"measurement": "exchange lifetime TM of inner-sphere coordinated water", "setting": "[3]; 298 K (25° C.), 2.12 T", "value": 55, "unit": "ns"}, {"measurement": "resident lifetime in renal tissue", "setting": "kidney cortex; 0.1 mmol/kg", "value": "> 3", "unit": "h"}, {"measurement": "maximal renal intensity enhancement (IE)", "setting": "kidney cortex; 0.1 mmol/kg (standard dosage), rat, first few minutes after administration", "value": "~200", "unit": "%"}, {"measurement": "renal IE preserved 250 minutes after injection", "setting": "kidney cortex; 0.1 mmol/kg, 250 min", "value": 40, "unit": "%"}, {"measurement": "kidney contrast enhancement two hours after the injection", "setting": "kidney cortex; 0.1 mmol/kg, two hours", "value": "faint contrast enhancement could still be observed"}, {"measurement": "maximal renal IE", "setting": "kidney cortex; 0.033 (0.03) mmol/kg, one third of standard dose, rat", "value": "123% and 120%"}, {"measurement": "time for which strong renal intensity enhancement is maintained", "setting": "kidney cortex; summary statement", "value": "more than four hours"}, {"measurement": "cell morphology (apoptotic or necrotic cells)", "setting": "MIHA cells [4]", "value": "no obvious apoptotic or necrotic cells were found"}, {"measurement": "viability of the cells", "setting": "MIHA cells [5]; 1×10^−5 mol L^−1 to 1×10^−2 mol L^−1, 1 h, 2 h, 8 h, 24 h incubation", "value": "above 90%"}, {"measurement": "effect on cell viability / cytotoxicity", "setting": "MIHA cells [5]; up to 1×10^−2 M, up to 24 h incubation", "value": "not affected obviously"}]}]}
